Data taken from patent publication US20070032551A1, “Salt of dimethylaminomethyl-phenyl-cyclohexane and crystalline forms thereof” (GRUENENTHAL GMBH, priority 2005, published 2007).

Key:
[1] = Storage at room temperature in high and low atmospheric humidity, crystal form by Raman (Examples E1-E3, B1); type: physicochemical; conditions: for crystalline form after storage / crystalline form after storage (Raman): room temperature
Protocol: Unless stated otherwise, the crystal forms are determined by comparison of the Raman spectra.
a) 30 mg of the amorphous fumarate prepared according to Example Bi are stored at room temperature and 75% relative atmospheric humidity for 5 days.
b) 30 mg of the amorphous fumarate prepared according to Example B2 are stored at room temperature and 90% relative atmospheric humidity for 3 days.
c) 30 mg of the amorphous fumarate prepared according to Example B2 are stored at room temperature and 53% relative atmospheric humidity for 2 months.
d) 30 mg of the amorphous fumarate prepared according to Example B2 are stored at room temperature and 22% relative atmospheric humidity for 2 months. Thereafter, the amorphous product is still present.
The fumarate prepared according to Example C3 is stored at room temperature and 75% relative atmospheric humidity, and after 3 days and 1, 2, 3, 4 and 8 weeks samples are analyzed by means of Raman spectroscopy.
The crystalline form B prepared according to Example A1 is stored at room temperature and 75% relative atmospheric humidity, and after 3 days and 1, 2, 3, 4 and 8 weeks samples are analyzed by means of Raman spectroscopy.

[2] = Water uptake by dynamic vapor sorption (Example E6); type: physicochemical; conditions: 25° C.; for crystalline form present at the end of the DVS measurement: fumarate; for water uptake: DVS
Protocol: (§1) The water uptake is determined by means of dynamic water vapor uptake (dynamic vapor sorption, DVS) with the DVS-1 apparatus from Surface Measurement Systems Ltd. The sample is placed in a platinum crucible on the tip of a microbalance. The sample is then first equilibrated at 50% relative atmospheric humidity and subsequently subjected to a predefined measurement program. The temperature is 25° C. The change in weight of the sample is determined.

[3] = Water uptake of fumarate and hydrochloride by DVS (Example E8); type: physicochemical; conditions: 25° C.
Protocol: as §1, with “the sample after a stepwise increase in the relative atmospheric humidity by in each case 10% to 90% is determined.” for “the sample is determined.”

[4] = Damp storage and drying of fumarate and hydrochloride (Example E9); type: physicochemical; conditions: for change in the crystalline form (X-ray diffraction diagrams): after damp storage and drying; for DW (dry weight), starting value / WC (Karl Fischer water content), starting value: before the start of the storage
Protocol: Fumarate and hydrochloride according to Example E8 are first stored at 25° C. and 75% and 95% relative atmospheric humidity for 7 days and thereafter at 50° C. in vacuo in a drying cabinet for 7 days. Before the start of the storage, the X-ray diffraction diagrams (XRD), DSC for determination of transition points (Tp) and dry weight (DW) and the Karl Fischer water content (WC) are determined, and the same values are determined after the damp storage and drying. The X-ray diffraction diagrams show no change in the crystalline forms A and D after damp storage and drying. The starting values for the hydrochloride are Tp=116.27° C., DW=6.35% and WC=8.00%. The starting values for the fumarate are Tp=93.11° C. and 175.14° C., DW=0 and WC=0.2%. The results are given in Tables 7 (75% relative atmospheric humidity) and 8 (95% relative atmospheric humidity).

[5] = Stability under grinding conditions (Example E4); type: physicochemical; conditions: for crystalline form after trituration: pestle in a mortar dish, 5 minutes; for crystalline form after grinding: agate ball mill, 20 Hz, room temperature, 180 minutes
Protocol: The fumarate prepared according to Example C3 is triturated with a pestle in a mortar dish for 5 minutes.
The fumarate prepared according to Example A1 is introduced into an agate ball mill (Retsch MM200 mixing mill with 5 mm agate balls) and ground at 20 Hz and room temperature for 180 minutes.

[6] = Stability under pressure, pressing of tablets (Example E5); type: physicochemical; conditions: 100 MPa in vacuo, 60 minutes
Protocol: The fumarate prepared according to Example C3 is introduced into a tablet press and pressed to a tablet under a pressure of 100 MPa in vacuo for 60 minutes.

[7] = Stability at elevated temperature, HPLC and FT Raman (Example E7); type: physicochemical; conditions: for stability at elevated temperature (in words): open and closed vessels
Protocol: The crystalline forms are stored in open and closed vessels and possible changes are measured as stability parameters by chromatography (HPLC) after a given time.

[8] = Solubility (general statement)
[9] = Hygroscopicity (general statement); type: physicochemical
[10] = Bioavailability (general statement)
[11] = 75% r.h. storage, then drying at 50° C. in vacuo for 7 days
[12] = 95% r.h. storage, then drying at 50° C. in vacuo for 7 days
[13] = after damp storage, 25° C., 75% relative atmospheric humidity, 7 days
[14] = after damp storage, 25° C., 95% relative atmospheric humidity, 7 days
[15] = 75% relative atmospheric humidity, after 8 weeks, fumarate
[16] = 40° C./75% r.h., 1 week, fumarate
[17] = 60° C. (closed), 1 week, fumarate
[18] = 60° C. (closed), 4 weeks, fumarate
[19] = 60° C./75% r.h., 4 weeks, fumarate

| Structure (SMILES) | crystalline form present at the end of the DVS measurement [2] | WC (%) [4, 11] | WC (%) [4, 12] | change in the crystalline form (X-ray diffraction diagrams) [4] | WC (%) [4, 13] | WC (%) [4, 14] | DW (dry weight), starting value [4] | WC (Karl Fischer water content), starting value [4] | crystalline form after storage (Raman) [1, 15] | crystalline form after pressing to a tablet [6] | water uptake ([2]; measurement cycle) | HPLC [7, 16] | HPLC [7, 17] | HPLC [7, 18] | HPLC [7, 19] | stability at elevated temperature (in words) ([7]; fumarate) | HPLC ([7]; −18° C. (reference), 4 weeks) | solubility in polar solvents [8] | hygroscopicity [9] | also measured |
| --- | --- | --- | --- | --- | --- | --- | --- | --- | --- | --- | --- | --- | --- | --- | --- | --- | --- | --- | --- | --- |
| CN(C)C[C@@H]1CCCC[C@H]1c1cccc(O)c1.O=C(O)/C=C/C(=O)O [amorphous form, (+)-(1R,2R)-3-[2-(dimethylamino)methyl-(cyclohex-1-yl)]-phenol fumarate] | crystalline form A | – | – | – | – | – | – | – | – | – | – | – | – | – | – | – | – | – | – | form after storage ([1]; 22% relative atmospheric humidity and 25° C., after 2 months): still amorphous; crystalline form after storage ([1]; 22% relative atmospheric humidity, 2 months): still present; crystalline form after storage ([1]; 53% relative atmospheric humidity, 2 months): converted completely into the crystalline form B; crystalline form after storage ([1]; 75% relative atmospheric humidity, 5 days): converted completely into the crystalline form B; crystalline form after storage ([1]; 90% relative atmospheric humidity, 3 days): converted completely into the crystalline form B; water uptake ([2]; up to about 77% relative atmospheric humidity): about 6.5 wt. % |
| CN(C)C[C@@H]1CCCC[C@H]1c1cccc(O)c1.Cl [Hydrochloride, (+)-(1R,2R)-3-[2-(Dimethylamino)methyl-(cyclohex-1-yl)]-phenol hydrochloride] | – | 6.00% | 6.60% | no change | 8.50% | 8.50% | 6.35% | 8.00% | – | – | – | – | – | – | – | – | – | – | – | water uptake in total ([3]; 90% relative atmospheric humidity): about 5 wt. %; water uptake ([3]; relative atmospheric humidity increased to about 75%): about 2 wt. %; water released on desorption, in total ([3]; stepwise lowering of relative atmospheric humidity by 10%): 8.5%; DW (%) [4, 11]: 6.12%; DW (%) [4, 12]: 6.74%; DW (%) [4, 13]: 5.92%; DW (%) [4, 14]: 7.84% |
| CN(C)C[C@@H]1CCCC[C@H]1c1cccc(O)c1.O=C(O)/C=C/C(=O)O [crystalline form A, (+)-(1R,2R)-3-[2-(dimethylamino)methyl-(cyclohex-1-yl)]-phenol fumarate] | substantially the crystalline form B | – | – | – | – | – | – | – | crystalline form B is also present | mixture of the crystalline forms A and B | about 0.2 wt. % | 99.5% | 99.9% | 99.6% | 99.3% | very stable in respect of chemical stability and crystal form | 100% | very good | – | crystalline form after storage (Raman) ([1]; 75% relative atmospheric humidity, after 3 days): converted into the crystalline form B; crystalline form after trituration ([5]; listed as Example C3, fumarate): mixture of the crystalline form A and B; FT Raman (determination of the crystalline form) ([7]; 60° C. (closed), 1 week): A and B; FT Raman (determination of the crystalline form) ([7]; 60° C. (closed), 4 weeks): A and B; FT Raman (determination of the crystalline form) ([7]; −18° C. (reference), 4 weeks): A and B |
| CN(C)C[C@@H]1CCCC[C@H]1c1cccc(O)c1.O=C(O)/C=C/C(=O)O [crystalline form B, (+)-(1R,2R)-3-[2-(dimethylamino)methyl-(cyclohex-1-yl)]-phenol fumarate] | unchanged | 0.30% | 0.30% | no change | 0.50% | 0.50% | 0% | 0.2% | practically unchanged | mixture of the crystalline forms A and B | about 0.2 wt. % | 100.0% | 99.0% | 100.6% | 99.1% | very stable in respect of chemical stability | 100% | very good | not hygroscopic | crystalline form after grinding ([5]; fumarate): mixture of the crystalline forms A and B; crystalline form after grinding ([5]; listed as Example A1, fumarate): mixture of the crystalline form A and B; crystalline form after trituration ([5]; fumarate): unchanged; release of absorbed moisture on desorption ([3]; at about 10% relative atmospheric humidity): released again completely; water uptake ([3]; stepwise increase of relative atmospheric humidity by 10% to 90%): 0.13% |
| CN(C)CC1CCCCC1c1cccc(O)c1.Cl (centres unmarked) [3-[2-(dimethylamino)methyl-(cyclohex-1-yl)]-phenol hydrochloride, reference compound] | – | – | – | – | – | – | – | – | – | – | – | – | – | – | – | – | – | – | decidedly hygroscopic | – |
| CN(C)CC1CCCCC1c1cccc(O)c1.O=C(O)/C=C/C(=O)O (centres unmarked) [3-[2-(dimethylamino)methyl-(cyclohex-1-yl)]-phenol fumarate] | – | – | – | – | – | – | – | – | – | – | – | – | – | – | – | – | – | – | not hygroscopic | solubility ([8]; particularly in polar and protic solvents, including water): good; bioavailability [10]: good |
